From paper PMC11278233, “The Composition of Triterpene Glycosides in the Sea Cucumber Psolus peronii: Anticancer Activity of the Glycosides against Three Human Breast Cancer Cell Lines and Quantitative Structure–Activity Relationships (QSAR)” (Marine Drugs, 2024) come the findings set out here.

The subject of series [1] is human erythrocytes. The series can be described thus: Hemolytic activity. It is filed as cell-based. To be noted: Erythrocyte, 1 h at 37 °C, lysis of 50% of erythrocytes. Here is the method:
A total of 450 g of human blood (B(III) Rh+) was used to obtain erythrocytes by centrifuging it three times for 5 min with phosphate-buffered saline (PBS) (pH 7.4) at 4 °C on the centrifuge LABOFUGE 400R (Heraeus, Hanau, Germany). Ice-cold PBS (pH 7.4) was used for resuspension of the erythrocyte residue to a final optical density of 1.5 at 700 nm, which was kept on ice. Then, 20 µL of the tested compound solutions was added to 180 µL of the erythrocyte suspension in V-bottom 96-well plates and exposed for 1 h at 37 °C. The layers were separated by centrifugation at 900 g for 10 min on the laboratory centrifuge LMC-3000 (Biosan, Riga, Latvia). A total of 100 µL of the supernatant was carefully decanted and transferred into a new flat plate. The values of erythrocyte lysis were measured on a microplate photometer Multiskan FC (Thermo Fisher Scientific, Waltham, MA, USA) at λ = 570 nm as the hemoglobin concentration in the supernatant. […] All the experiments were carried out in triple repetitions; p ≤ 0.05.

Series [2] can be described thus: in vitro. It counts as cell-based, human. To be noted: human.
The subject of series [3] is non-transformed epithelial cells of the mammary gland MCF-10A. The series can be described thus: in vitro. It counts as cell-based, human.
The subject of series [4] is human breast cancer cell line MCF-7. The series is described as follows: cells. It is filed as cell-based. To be noted: for IC50: Homo sapiens, MCF7, 24 h, read-out: Cytotoxicity, IC50 µM MCF-7; for Selectivity Index MCF-7: ratio of IC50 for healthy (MCF-10A) and cancer cells.
Series [5] relates to human breast cancer cell line T-47D. The series can be described thus: cells. It is filed as cell-based. To be noted: for IC50: Homo sapiens, T47D, 24 h, read-out: Cytotoxicity, IC50 µM T-47D; for Selectivity Index T-47D: ratio of IC50 for healthy (MCF-10A) and cancer cells.
Series [6] relates to triple-negative human breast cancer cell line MDA-MB-231. The series can be described thus: cells. It counts as cell-based. The settings on record: for IC50: Homo sapiens; for Selectivity Index MDA-MB-231: ratio of IC50 for healthy (MCF-10A) and cancer cells.
Series [7] has as its system MCF-7 cells. The series can be described thus: Colonogenic (colony formation) assay, MCF-7. It counts as cell-based. The settings on record: Homo sapiens, MCF7, 336 h, 14 days. Here is the method:
(§1) The cancer cells (MDA-MB-231, MCF-7 and T-47D lines) were cultured on 6-well plates at a density of 1 × 10^3 per well in control media (MEM media, 10% FBS, 10,000 U/mL of penicillin and […] of streptomycin) or in media supplemented with different concentrations of the glycosides. The cells were incubated for 14 days at 37 °C in a 5% CO2 humidified incubator. Then, the colonies were fixed with methanol (25 min), stained with a 0.5% solution of crystal violet (25 min), washed with H2O and dried in air. Counting of the grown colonies was carried out using a BIO-PRINT-Cx4 Edge-Fixed Pad-Container (Vilber, Collegien, France) device and using the software Bio-Vision SOFTWARE User and service manual-v18.01 (Vilber, Collegien, France). The results are presented as % of colony inhibition in relation to the control.

For series [8], the system named is MDA-MB-231 cells. The series is described as follows: Colonogenic (colony formation) assay, MDA-MB-231. To be noted: Homo sapiens, 336 h, 14 days, read-out: inhibition of the growth of colonies. It is filed as cell-based. Here is the method:
as §1

Series [9] relates to MCF-7 cells. The series is described as follows: Wound healing (scratch) assay, MCF-7. It is filed as cell-based, human. To be noted: 1 and 2 μM, within 48 h, control migrated by 84.60 ± 2.12%. Here is the method:
(§2) To analyze the influence of the tested compounds on tumor cell migration, MCF-7 and MDA-MB-231 (5 × 10^5) cells attached to the plate’s plastic bottom were separated using a silicone insert from special migration plates (Culture-insert 2Well 24, ibiTreat). When the insert was removed, a gap of […] (according to the manufacturer’s data) between the cells was left. After 24 h, the cells were washed twice with PBS to remove cell debris and floating cells, treated with 1 and 2 μM of psolusosides A (2) and L (6) and placed in the real-time live cell imaging system Juli Stage (NanoEntek, Seoul, South Korea). Cells treated with the culture medium only were used as the control. The cell migration was analyzed in real time (15 min for each cycle). For the MDA-MB-231 cells, observations were carried out for 12 h (until complete healing of the wound area in the control); for MCF-7 cells, this time was 48 h. The results were processed using the program Juli^TM Stat (NanoEntek, South Korea).

For series [10], the system named is MDA-MB-231 cells. The series can be described thus: Wound healing (scratch) assay, MDA-MB-231. It is filed as cell-based, human. To be noted: 2 μM, within 12 h, control 99.83 ± 0.08%. How it is done: as §2
The subject of series [11] is T-47D cells. The series can be described thus: Colonogenic (colony formation) assay, T-47D. It is filed as cell-based, human. The settings on record: 1 μM, 14 days. Here is the method: as §1
Setting [12] is: MDA-MB-231, 24 h, read-out: Cytotoxicity, IC50 µM MDA-MD-231.
[13] abbreviates: MDA-MB-231, MTT assay, 48 h incubation, read-out: IC50 against MDA-MB-231 cells (antiproliferative effect).
Where [14] appears, read: MDA-MB-231, MTT assay, 72 h incubation, read-out: IC50 against MDA-MB-231 cells (antiproliferative effect).

SMILES strings stand for the structures. Read-outs that look alike come from different tables or passages of the source. Where only a bound is given, the exact number is not on record here.

Regarding `C=C(C)CCC[C@]1(C)OC(=O)[C@]23CC=C4[C@@H](CC[C@H]5C(C)(C)[C@@H](O[C@@H]6OC[C@@H](O)[C@H](O)[C@H]6O[C@@H]6O[C@H](C)[C@@H](O[C@@H]7O[C@H](COS(=O)(=O)[O-])[C@@H](O)[C@H](O[C@@H]8O[C@H](COS(=O)(=O)[O-])[C@@H](O)[C@H](OC)[C@H]8O)[C@H]7O)[C@H](O)[C@H]6O)CC[C@]45C)[C@]2(C)CC(=O)[C@@H]31.[Na+].[Na+]` [psolusoside A (2), psolusoside A], the IC50 in series [1] stood at 1.05 ± 0.12 µM; in series [4], 11.2 ± 0.4 µM; in series [5], 9.52 ± 0.13 µM; in series [6] (setting [12]), 6.09 ± 0.87 µM; in series [6] (setting [13]), 3.87 ± 0.38 µM; in series [6] (setting [14]) it was 3.27 ± 0.27 µM. The IC50 at 24 h in series [2] is > 50 µM. For the same compound, the “cytotoxicity to non-transformed MCF-10A cells (result in words)” value in series [3] is reported as “not cytotoxic”. Besides, the “Selectivity Index MCF-7” value came out at 4.47 in series [4] (24 h of exposition), 1.84 in series [4] (48 h of exposition) and 0.59 in series [4] (72 h of exposition). In addition, the “Selectivity Index T-47D” value was found to be 5.25 in [5] (24 h of exposition), 0.86 in series [5] (48 h of exposition) and 0.76 in series [5] (72 h of exposition). The “Selectivity Index MDA-MB-231” value in series [6] (24 h of exposition) was determined as 8.21; in [6] (48 h of exposition) it was 2.18; in [6] (72 h of exposition) it was 2.09. Further, the inhibition at 1 µM in [7] was 33.8 ± 2.64%; in [8] (1 μM) it was 88.76 ± 0.81%. For the same compound, at 2 µM the inhibition in [7] was 54.9 ± 1.92%. The compound also returned an inhibition at 5 µM in series [7] of 96.88 ± 0.96%. In addition, the inhibition at 0.5 µM in series [8] (0.5 μM) was found to be 40.6 ± 5.62%. Further, in series [9], the “reduction of the migration of cells to the scratch area” value is 33–42%. In addition, the “overgrowth of the wound area (migration)” value in series [10] came to 30.01 ± 0.16%.
On to `C=C(C)CCC[C@]1(C)OC(=O)[C@]23CC=C4[C@@H](CC[C@H]5C(C)(C)[C@@H](O[C@@H]6OC[C@@H](O[C@@H]7O[C@H](COS(=O)(=O)[O-])[C@@H](O)[C@H](O)[C@H]7O)[C@H](O)[C@H]6O[C@@H]6O[C@H](C)[C@@H](O[C@@H]7O[C@H](COS(=O)(=O)[O-])[C@@H](O)[C@H](O[C@@H]8O[C@H](COS(=O)(=O)[O-])[C@@H](O)[C@H](OC)[C@H]8O)[C@H]7O)[C@H](O)[C@H]6O)CC[C@]45C)[C@]2(C)CC(=O)[C@@H]31.[Na+].[Na+].[Na+]` [psolusoside L (6), psolusoside L], for which the half-inhibitory concentration (IC50) in series [1] came to 1.83 ± 0.14 µM; in series [4], 13.7 ± 0.31 µM; in series [5] it was 5.45 ± 0.04 µM; in series [6] (setting [12]) it was 6.39 ± 0.3 µM; in series [6] (setting [13]), 1.67 ± 0.16 µM; in [6] (setting [14]) it was 1.24 ± 0.02 µM. This compound returned an IC50 at 24 h in [2] of 33.08 ± 0.29 µM. Besides, the “cytotoxicity to non-transformed MCF-10A cells (result in words)” value in series [3] is given as “slightly cytotoxic”. In addition, the entries for the “Selectivity Index MCF-7” value in [4] (24 h of exposition), in [4] (48 h of exposition) and in [4] (72 h of exposition) were 2.41, 1.33 and 0.66, respectively. Besides, the “Selectivity Index T-47D” value in series [5] (24 h of exposition) is on record as 6.07; in series [5] (48 h of exposition), 1.25; in series [5] (72 h of exposition), 0.91. Besides, the “Selectivity Index MDA-MB-231” value is 5.18 in series [6] (24 h of exposition), 5.83 in series [6] (48 h of exposition) and 4.56 in series [6] (72 h of exposition). In series [7], this compound yielded an inhibition at 1 µM of 19.6 ± 0.24%. Further, the inhibition at 2 µM in series [7] was 89.67 ± 0.28%; in series [8] (2 μM), 90.4 ± 0.92%. Moreover, in series [7], at 5 µM the inhibition was 97.83 ± 0.25%. In addition, the “growth of colonies (result in words)” value in [11] is listed as “completely blocked”. The “reduction of the migration of cells to the scratch area” value in series [9] is 33–42%. For the same compound, the “overgrowth of the wound area (migration)” value in series [10] is reported as 6.03 ± 0.02%.
